According to patent publication US12180176B2, “Fluorinated empathogens” (priority 2021, dated 2024):

What was measured:
[1] = human psychoactivity, literature; cited from earlier work
SERT = SERT (Homo sapiens, UniProt P31645); settings: functional assay; cited from earlier work
[2] = Metabolic stability in human liver microsomes; assay type: in vitro ADME
Text: Purpose: To determine the metabolic stability of a disclosed compound relative to its corresponding non-fluorinated analog. Metabolic stability assays measure the intrinsic clearance (CLint) of a compound, providing critical data needed to calculate other key pharmacokinetic parameters such as bioavailability and half-life (t1/2).
Methods: A high-throughput assay was used to determine metabolic stability of disclosed compounds and non-fluorinated analogs thereof in human liver microsomes. LC/MS analysis was used to quantify the percent compound remaining after incubation. The half-life (t1/2) was estimated from the slope of the initial linear range of the logarithmic curve of compound remaining (%) versus time, assuming first order kinetics.

Chain of SERT (P31645 whole entry, species assumed): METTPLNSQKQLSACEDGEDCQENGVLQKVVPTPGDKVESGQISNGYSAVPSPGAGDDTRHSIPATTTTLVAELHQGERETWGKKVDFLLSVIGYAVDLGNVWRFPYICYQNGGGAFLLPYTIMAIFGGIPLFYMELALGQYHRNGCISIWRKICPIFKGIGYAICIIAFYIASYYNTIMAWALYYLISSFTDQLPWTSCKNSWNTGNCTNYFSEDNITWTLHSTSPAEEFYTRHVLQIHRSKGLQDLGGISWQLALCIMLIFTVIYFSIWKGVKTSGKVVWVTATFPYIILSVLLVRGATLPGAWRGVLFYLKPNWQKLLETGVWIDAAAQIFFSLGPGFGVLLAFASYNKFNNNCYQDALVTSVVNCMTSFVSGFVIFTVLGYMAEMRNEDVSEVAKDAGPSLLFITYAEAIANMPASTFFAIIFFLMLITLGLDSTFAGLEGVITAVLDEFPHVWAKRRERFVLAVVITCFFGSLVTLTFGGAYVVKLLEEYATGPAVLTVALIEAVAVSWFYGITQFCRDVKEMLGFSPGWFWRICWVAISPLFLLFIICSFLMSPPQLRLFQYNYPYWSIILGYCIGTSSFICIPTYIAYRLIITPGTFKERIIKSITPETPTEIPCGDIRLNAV

Q: For `CC(N)Cc1ccc2c(c1)OC(F)(F)O2` (centres unmarked) [DiFMDA, Difluoromethylenedioxyamphetamine], which “active dose in humans” value [1] is on record?
A: The value was > 250 mg.

Q: And the SERT affinity (SERT)?
A: Its SERT affinity is “between that of MDA and MDMA”.

Q: For `CC(N)Cc1ccc2c(c1)OCO2` (centres unmarked) [MDA, 3,4-methylenedioxyamphetamine], which “active dose in humans” value [1] is on record?
A: The value was 80 to 160 mg.

Q: What does the source list for `CC(Cc1ccc2c(c1)OCO2)NCCF.Cl` (centres unmarked) [MDEA-F]?
A: percent compound remaining ([2]; Time 0.0): 100.0%; percent compound remaining ([2]; Time 15.00): 81.80%; percent compound remaining ([2]; Time 30.00): 68.75%; percent compound remaining ([2]; Time 45.00): 65.35%; percent compound remaining ([2]; Time 60.00 (one hour of incubation), listed as ASR-1004): 42.05%; percent compound remaining ([2]; Time 60.00 (one hour of incubation), listed as MIDEA-F): 42%; half-life (t1/2) ([2]; estimated from slope of log % remaining versus time): about 57 minutes

Q: With `CC(Cc1ccc2c(c1)OCO2)NCC(F)(F)F` (centres unmarked) [MDTFEA, 3,4-methylenedioxy-N-trifluoroethylamphetamine] as the molecule, how does the “active dose in humans” value [1] read?
A: The value was > 500 mg.
